Measured values published in ChEMBL document CHEMBL1201862, “PubChem BioAssay data set” (2004).
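These data come from cells grown in 96-well plates and exposed to compound for 48 hours at five concentrations. GI50 = concentration required for 50% inhibition of growth.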 Calls of active or inactive are those of the source. Rule as the data show it: active = GI50 up to about 1.1 µM and inactive = higher.

How the values were obtained:
Test in all cases: growth of human tumour cells (NCI), 48 h
786-0 = test system: 786-0
A498 = test system: A498
A549 = test system: A549
ACHN = test system: ACHN
BT-549 = test system: BT-549
CAKI-1 = test system: CAKI-1
CCRF-CEM = test system: CCRF-CEM
COLO 205 = test system: COLO 205
DU-145 = test system: DU-145
EKVX = test system: EKVX
HCC 2998 = test system: HCC 2998
HCT-116 = test system: HCT-116
HCT-15 = test system: HCT-15
HL-60 = test system: HL-60
HOP-62 = test system: HOP-62
HOP-92 = test system: HOP-92
HT-29 = test system: HT-29
Hs-578T = test system: Hs-578T
IGROV-1 = test system: IGROV-1
K562 = test system: K562
KM12 = test system: KM12
LOX IMVI = test system: LOX IMVI
M14 = test system: M14
MCF7 = test system: MCF7
MDA-MB-231 = test system: MDA-MB-231
MDA-MB-435 = test system: MDA-MB-435
MDA-N = test system: MDA-N
MOLT-4 = test system: MOLT-4
Malme-3M = test system: Malme-3M
NCI-H226 = test system: NCI-H226
NCI-H23 = test system: NCI-H23
NCI-H460 = test system: NCI-H460
NCI-H522 = test system: NCI-H522
NCI/ADR-RES = test system: NCI/ADR-RES
OVCAR-3 = test system: OVCAR-3
OVCAR-4 = test system: OVCAR-4
OVCAR-5 = test system: OVCAR-5
OVCAR-8 = test system: OVCAR-8
PC-3 = test system: PC-3
RPMI-8226 = test system: RPMI-8226
RXF 393 = test system: RXF 393
SF-268 = test system: SF-268
SF-295 = test system: SF-295
SF-539 = test system: SF-539
SK-MEL-28 = test system: SK-MEL-28
SK-MEL-2 = test system: SK-MEL-2
SK-MEL-5 = test system: SK-MEL-5
SK-OV-3 = test system: SK-OV-3
SN12C = test system: SN12C
SNB-19 = test system: SNB-19
SNB-75 = test system: SNB-75
SW-620 = test system: SW-620
T47D = test system: T47D
TK-10 = test system: TK-10
U-251 = test system: U-251
UACC-257 = test system: UACC-257
UACC-62 = test system: UACC-62
UO-31 = test system: UO-31
SR = test system: SR

Measured: GI50

COc1ccc2nccc(/C=C/c3ccc(N(C)C)cc3)c2c1
inactive: 786-0 > 10 µM | A498 > 10 µM | A549 > 10 µM | ACHN > 10 µM | BT-549 > 10 µM | CAKI-1 > 10 µM | CCRF-CEM 5.66 µM | COLO 205 > 10 µM | DU-145 > 10 µM | EKVX > 10 µM | HCC 2998 > 10 µM | HCT-116 8.59 µM | HL-60 > 10 µM | HOP-62 > 10 µM | HOP-92 > 10 µM | HT-29 > 10 µM | Hs-578T > 10 µM | IGROV-1 > 10 µM | K562 6.41 µM | KM12 > 10 µM | LOX IMVI > 10 µM | M14 > 10 µM | MCF7 > 10 µM | MDA-MB-231 > 10 µM | MDA-MB-435 2.31 µM | MDA-N 3.02 µM | MOLT-4 8.18 µM | Malme-3M > 10 µM | NCI-H226 > 10 µM | NCI-H23 > 10 µM | NCI-H460 > 10 µM | NCI-H522 > 10 µM | NCI/ADR-RES > 10 µM | OVCAR-3 > 10 µM | OVCAR-4 > 10 µM | OVCAR-5 > 10 µM | OVCAR-8 > 10 µM | PC-3 > 10 µM | RPMI-8226 > 10 µM | RXF 393 > 10 µM | SF-268 > 10 µM | SF-295 > 10 µM | SF-539 > 10 µM | SK-MEL-28 > 10 µM | SK-MEL-2 > 10 µM | SK-MEL-5 > 10 µM | SK-OV-3 > 10 µM | SN12C > 10 µM | SNB-19 > 10 µM | SNB-75 6.73 µM | SW-620 > 10 µM | T47D > 10 µM | TK-10 > 10 µM | U-251 > 10 µM | UACC-257 > 10 µM | UACC-62 > 10 µM | UO-31 > 10 µM
> 10 µM: HCT-15

CC1C/C(=N\N(C)C)C(C#N)(C#N)C1(C#N)C#N (centres undefined)
4.81 µM: HCT-15
inactive: 786-0 3.7 µM | A549 24.8 µM | ACHN 8.43 µM | BT-549 4.57 µM | CAKI-1 1.75 µM | COLO 205 1.82 µM | DU-145 18.2 µM | EKVX 22 µM | HCC 2998 17 µM | HCT-116 9.48 µM | HOP-62 18 µM | HOP-92 4.63 µM | HT-29 6.53 µM | Hs-578T 35.6 µM | IGROV-1 20.6 µM | K562 2.35 µM | KM12 27 µM | LOX IMVI 7.14 µM | M14 12.2 µM | MCF7 16 µM | MDA-MB-435 16.7 µM | MDA-N 17.8 µM | MOLT-4 2.63 µM | Malme-3M 7.6 µM | NCI-H226 30.2 µM | NCI-H23 20.5 µM | NCI-H522 1.93 µM | NCI/ADR-RES 25.8 µM | OVCAR-3 13.2 µM | OVCAR-4 12.6 µM | OVCAR-5 21.6 µM | OVCAR-8 19.2 µM | PC-3 20.8 µM | RPMI-8226 3.92 µM | RXF 393 9.89 µM | SF-268 15.6 µM | SF-295 20.8 µM | SF-539 18.1 µM | SK-MEL-28 16 µM | SK-MEL-2 22.2 µM | SK-MEL-5 18.7 µM | SK-OV-3 > 46.9 µM | SN12C 19 µM | SNB-19 31.7 µM | SNB-75 9.64 µM | SR 2.82 µM | SW-620 5.05 µM | T47D 10.8 µM | TK-10 13.6 µM | U-251 18.7 µM | UACC-257 13.2 µM | UACC-62 13.8 µM | UO-31 15.6 µM
active: CCRF-CEM 0.91 µM | HL-60 0.857 µM | MDA-MB-231 0.583 µM

COC(=O)C1=COC(C)C2C[n+]3ccc4c([nH]c5ccccc54)c3CC12 (centres undefined)
75.2 µM: HCT-15
inactive: 786-0 > 100 µM | A498 > 100 µM | A549 > 100 µM | ACHN > 100 µM | BT-549 > 100 µM | CAKI-1 > 100 µM | CCRF-CEM > 100 µM | COLO 205 > 100 µM | DU-145 > 100 µM | EKVX > 100 µM | HCC 2998 > 100 µM | HCT-116 > 100 µM | HL-60 > 100 µM | HOP-62 > 100 µM | HOP-92 > 100 µM | HT-29 > 100 µM | Hs-578T > 100 µM | IGROV-1 49.1 µM | K562 > 100 µM | KM12 > 100 µM | LOX IMVI > 100 µM | M14 > 100 µM | MCF7 42.7 µM | MDA-MB-231 > 100 µM | MDA-MB-435 > 100 µM | MDA-N > 100 µM | MOLT-4 38.9 µM | NCI-H226 44.9 µM | NCI-H23 > 100 µM | NCI-H460 36.2 µM | NCI-H522 54.5 µM | NCI/ADR-RES > 100 µM | OVCAR-3 > 100 µM | OVCAR-4 81.7 µM | OVCAR-5 > 100 µM | OVCAR-8 > 100 µM | PC-3 > 100 µM | RPMI-8226 > 100 µM | SF-268 > 100 µM | SF-295 > 100 µM | SF-539 > 100 µM | SK-MEL-28 > 100 µM | SK-MEL-2 > 100 µM | SK-MEL-5 > 100 µM | SK-OV-3 > 100 µM | SN12C > 100 µM | SNB-19 > 100 µM | SNB-75 > 100 µM | SW-620 > 100 µM | T47D 36.6 µM | TK-10 > 100 µM | U-251 > 100 µM | UACC-257 > 100 µM | UACC-62 > 100 µM | UO-31 > 100 µM

COc1ccc(CCN2CCN(CCc3ccc(OC)cc3)CC2)cc1
> 100 µM: HCT-15
inactive: 786-0 > 100 µM | A498 > 100 µM | A549 > 100 µM | ACHN > 100 µM | BT-549 > 100 µM | CAKI-1 > 100 µM | CCRF-CEM > 100 µM | COLO 205 > 100 µM | DU-145 > 100 µM | EKVX > 100 µM | HCC 2998 > 100 µM | HCT-116 > 100 µM | HL-60 > 100 µM | HOP-62 > 100 µM | HOP-92 > 100 µM | HT-29 > 100 µM | Hs-578T > 100 µM | IGROV-1 > 100 µM | K562 > 100 µM | KM12 > 100 µM | LOX IMVI > 100 µM | M14 > 100 µM | MCF7 > 100 µM | MDA-MB-231 > 100 µM | MDA-MB-435 > 100 µM | MDA-N > 100 µM | MOLT-4 > 100 µM | Malme-3M > 100 µM | NCI-H226 > 100 µM | NCI-H23 > 100 µM | NCI-H460 > 100 µM | NCI-H522 > 100 µM | NCI/ADR-RES > 100 µM | OVCAR-3 > 100 µM | OVCAR-4 > 100 µM | OVCAR-5 > 100 µM | OVCAR-8 > 100 µM | PC-3 > 100 µM | RPMI-8226 > 100 µM | RXF 393 26.2 µM | SF-268 > 100 µM | SF-295 46.6 µM | SF-539 > 100 µM | SK-MEL-28 > 100 µM | SK-MEL-2 > 100 µM | SK-MEL-5 > 100 µM | SK-OV-3 > 100 µM | SN12C > 100 µM | SNB-19 > 100 µM | SW-620 > 100 µM | T47D > 100 µM | TK-10 > 100 µM | U-251 > 100 µM | UACC-257 > 100 µM | UACC-62 > 100 µM | UO-31 > 100 µM

N=C(N)C(/N=N\c1ccccc1)C(N)=O (centres undefined)
inactive: 786-0 > 100 µM | A498 66.5 µM | A549 > 100 µM | ACHN > 100 µM | BT-549 > 100 µM | CAKI-1 64.7 µM | COLO 205 > 100 µM | DU-145 > 100 µM | EKVX 95.7 µM | HCC 2998 > 100 µM | HCT-116 > 100 µM | HL-60 > 100 µM | HOP-62 > 100 µM | HOP-92 > 100 µM | HT-29 > 100 µM | Hs-578T > 100 µM | IGROV-1 > 100 µM | K562 35.9 µM | KM12 59.4 µM | LOX IMVI 83 µM | M14 > 100 µM | MCF7 > 100 µM | MDA-MB-231 > 100 µM | MDA-MB-435 83.4 µM | MDA-N > 100 µM | MOLT-4 > 100 µM | Malme-3M > 100 µM | NCI-H226 > 100 µM | NCI-H23 > 100 µM | NCI-H460 > 100 µM | NCI-H522 > 100 µM | NCI/ADR-RES > 100 µM | OVCAR-3 > 100 µM | OVCAR-4 53.7 µM | OVCAR-5 > 100 µM | OVCAR-8 > 100 µM | PC-3 > 100 µM | RPMI-8226 > 100 µM | RXF 393 87.3 µM | SF-268 > 100 µM | SF-295 62.8 µM | SK-MEL-28 > 100 µM | SK-MEL-2 66.1 µM | SK-MEL-5 > 100 µM | SK-OV-3 > 100 µM | SN12C > 100 µM | SNB-19 > 100 µM | SNB-75 > 100 µM | SW-620 > 100 µM | T47D 57.7 µM | TK-10 96.4 µM | U-251 > 100 µM | UACC-257 > 100 µM | UACC-62 43.3 µM | UO-31 > 100 µM
83.8 µM: HCT-15
